Key:
Format in all cases: functional
[1] = tested on: Pseudoperonospora cubensis; assay: Antifungal activity against Pseudoperonospora cubensis assessed as inhibition at 400 mg/L relative to control
Blumeria graminis [2] = assay: Antifungal activity against Blumeria graminis assessed as inhibition at 400 mg/L relative to control
[3] = tested on: Pseudoperonospora cubensis; assay: Antifungal activity against Pseudoperonospora cubensis assessed as inhibition at 25 mg/L relative to control
Blumeria graminis [4] = assay: Antifungal activity against Blumeria graminis assessed as inhibition at 6.25 mg/L relative to control
Phytophthora infestans [5] = assay: Antifungal activity against Phytophthora infestans assessed as inhibition at 25 mg/L relative to control
Blumeria graminis [6] = assay: Antifungal activity against Blumeria graminis assessed as inhibition at 1.56 mg/L relative to control
Pyricularia oryzae [7] = assay: Antifungal activity against Magnaporthe oryzae assessed as inhibition at 25 mg/L relative to control
Phytophthora infestans [8] = assay: Antifungal activity against Phytophthora infestans assessed as inhibition at 0.92 mg/L relative to control
Pyricularia oryzae [9] = assay: Antifungal activity against Magnaporthe oryzae assessed as inhibition at 0.92 mg/L relative to control
[10] = tested on: Pseudoperonospora cubensis; assay: Antifungal activity against Pseudoperonospora cubensis assessed as inhibition at 6.25 mg/L relative to control
Myzus persicae = assay: Insecticidal activity against Myzus persicae (green peach aphid) at 600 mg/L relative to control

| Structure (SMILES) | inhibition at 400 µg/mL [1] | inhibition at 400 µg/mL (Blumeria graminis [2]) | inhibition at 25 µg/mL [3] | inhibition at 6.25 µg/mL (Blumeria graminis [4]) | inhibition at 25 µg/mL (Phytophthora infestans [5]) | inhibition at 1.56 µg/mL (Blumeria graminis [6]) | inhibition at 25 µg/mL (Pyricularia oryzae [7]) | inhibition at 0.92 µg/mL (Phytophthora infestans [8]) | inhibition at 0.92 µg/mL (Pyricularia oryzae [9]) | inhibition at 6.25 µg/mL [10] | Activity (Myzus persicae) |
| --- | --- | --- | --- | --- | --- | --- | --- | --- | --- | --- | --- |
| CNC(=O)/C(=N/OC)c1ccccc1COc1c(C)c(-c2ccc(Cl)cc2)nn1C | 80% | 100% | 40% | 100% | 100% | 85% | 0% | – | – | – | – |
| CO/N=C(/C(=O)OC)c1ccccc1COc1cc(-c2ccc(C(C)(C)C)cc2)nn1C | 95% | 0% | 0% | – | 100% | – | 100% | 60% | 80% | – | – |
| CCc1ccc(-c2nn(C)c(OCc3ccccc3/C(=N\OC)C(=O)OC)c2C)cc1 | 98% | 100% | 70% | 100% | 100% | 100% | 50% | 80% | – | 50% | – |
| CNC(=O)/C(=N/OC)c1ccccc1COc1cc(-c2ccccc2Cl)nn1C | 90% | 100% | 40% | 90% | 100% | 55% | 0% | 0% | – | – | – |
| CO/N=C(/C(=O)OC)c1ccccc1COc1cc(-c2ccc(OC)cc2)nn1C | 98% | 100% | 50% | 10% | 100% | – | 0% | 0% | – | – | – |
| CO/N=C(/C(=O)OC)c1ccccc1COc1c(C)c(-c2ccc(Cl)cc2)nn1C | 100% | 100% | 100% | 100% | 100% | 98% | 50% | 100% | – | 100% | – |
| CNC(=O)/C(=N/OC)c1ccccc1COc1c(C)c(-c2ccc(C)cc2)nn1C | 65% | 100% | – | 95% | 100% | 40% | 0% | 100% | – | – | – |
| CNC(=O)/C(=N/OC)c1ccccc1COc1cc(-c2ccc(C)cc2C)nn1C | 100% | 100% | 100% | 100% | 100% | 30% | 100% | 100% | 50% | 70% | – |
| CO/N=C(/C(=O)OC)c1ccccc1COc1cc(-c2ccccc2OC)nn1C | 50% | 100% | – | 90% | 0% | 40% | 100% | – | 50% | – | – |
| CCOc1ccc(-c2nn(C)c(OCc3ccccc3/C(=N\OC)C(=O)NC)c2C)cc1 | 98% | 100% | 20% | 100% | 100% | 70% | 100% | 50% | 100% | – | – |
| CO/N=C(/C(=O)OC)c1ccccc1COc1c(C)c(-c2ccc(OC)cc2)nn1C | 100% | 100% | 55% | 85% | 100% | 30% | 100% | 50% | 80% | 15% | – |
| CO/N=C(/C(=O)OC)c1ccccc1COc1c(C)c(-c2ccc(C)c(C)c2)nn1C | 100% | 100% | 75% | 100% | 100% | 60% | 100% | 100% | 80% | 70% | – |
| CNC(=O)/C(=N/OC)c1ccccc1COc1cc(-c2ccc(OC)cc2)nn1C | 98% | 100% | 30% | 0% | 100% | – | 100% | 0% | 80% | – | – |
| CO/N=C(/C(=O)OC)c1ccccc1COc1c(C)c(-c2ccc(OCC(F)(F)F)cc2)nn1C | 80% | 100% | 0% | 70% | 50% | 15% | 100% | – | 80% | – | – |
| CNC(=O)/C(=N/OC)c1ccccc1COc1cc(-c2ccccc2)nn1C | 100% | 50% | 100% | – | – | – | 0% | – | – | 70% | – |
| CNC(=O)/C(=N/OC)c1ccccc1COc1c(C)c(-c2ccc(C(C)(C)C)cc2)nn1C | 95% | 100% | 20% | 0% | 100% | 0% | 100% | 40% | 100% | – | – |
| CO/N=C(/C(=O)OC)c1ccccc1COc1cc(-c2ccccc2Cl)nn1C | 80% | 100% | 30% | 75% | 100% | 45% | 100% | 0% | 0% | – | – |
| CO/N=C(/C(=O)OC)c1ccccc1COc1c(C)c(-c2ccc(C)cc2C)nn1C | 100% | 100% | 100% | 100% | 100% | 75% | 100% | 100% | 80% | 98% | – |
| CO/C=C(/C(=O)OC)c1ccccc1Oc1cc(Oc2ccccc2C#N)ncn1 [AZOXYSTROBIN] | 100% | 100% | 100% | 100% | – | 60% | 100% | – | – | 95% | – |
| CNC(=O)/C(=N/OC)c1ccccc1COc1c(C)c(-c2ccc(C)c(C)c2)nn1C | 100% | 100% | 100% | 100% | 100% | 55% | 100% | 100% | 80% | 40% | – |
| CNC(=O)/C(=N/OC)c1ccccc1COc1c(C)c(-c2ccc(OCC(F)(F)F)cc2)nn1C | 100% | 100% | 80% | 100% | 100% | 40% | 80% | 50% | 50% | 30% | – |
| CNC(=O)/C(=N/OC)c1ccccc1COc1cc(-c2ccc(C(C)(C)C)cc2)nn1C | 80% | 0% | 0% | – | 100% | – | 100% | 50% | 50% | – | – |
| CNC(=O)/C(=N/OC)c1ccccc1COc1c(C)c(-c2ccc(C)cc2C)nn1C | 100% | 100% | 100% | 100% | 100% | 65% | 100% | 100% | 50% | 100% | – |
| CO/N=C(/C(=O)OC)c1ccccc1COc1cc(-c2ccccc2)nn1C | 95% | 70% | 70% | – | 0% | – | 0% | – | – | – | 100% |
| CCc1ccc(-c2nn(C)c(OCc3ccccc3/C(=N\OC)C(=O)NC)c2C)cc1 | 50% | 100% | – | 100% | 100% | 90% | 100% | 80% | 0% | – | – |
| CO/N=C(/C(=O)OC)c1ccccc1COc1c(C)c(-c2ccc(C(C)(C)C)cc2)nn1C | 40% | 70% | – | – | 0% | – | 50% | – | – | – | – |
| CO/N=C(/C(=O)OC)c1ccccc1COc1c(C)c(-c2ccc(C)cc2)nn1C | 95% | 100% | 60% | 100% | 100% | 100% | 50% | 100% | – | – | – |
| CO/N=C(/C(=O)OC)c1ccccc1COc1ccccc1C [KRESOXIM-METHYL] | – | 100% | 35% | 100% | 100% | 100% | 100% | – | – | 0% | – |

Source: ChEMBL document CHEMBL3044728, “Synthesis and biological activity of new (E)-alpha-(Methoxyimino)benzeneacetate derivatives containing a substituted pyrazole ring” (2010)
